ChEMBL document CHEMBL1201862, “PubChem BioAssay data set” (2004)
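Method: 48-hour compound exposure of cells in 96-well plates, five concentrations, linear interpolation of endpoints. The concentration for 50% growth inhibition is given as GI50.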 Active and inactive are the calls of the source. Rule as the data show it: active = GI50 up to about 1.1 µM and inactive = higher.

Tests used:
Assay in all cases: NCI-60 cell line screen, 48 h
[1] = test system: NCI-H23
[2] = test system: HL-60
[3] = test system: NCI/ADR-RES
[4] = test system: NCI-H226
[5] = test system: SF-295
[6] = test system: MDA-MB-435
[7] = test system: A549
[8] = test system: OVCAR-3
[9] = test system: RXF 393
[10] = test system: UACC-62
[11] = test system: OVCAR-5
[12] = test system: A498
[13] = test system: SF-539
[14] = test system: PC-3
[15] = test system: SK-MEL-2
[16] = test system: HT-29
[17] = test system: TK-10
[18] = test system: MOLT-4
[19] = test system: COLO 205
[20] = test system: HCT-116
[21] = test system: MCF7
[22] = test system: OVCAR-8
[23] = test system: HOP-92
[24] = test system: KM12
[25] = test system: ACHN
[26] = test system: MDA-MB-231
[27] = test system: Hs-578T
[28] = test system: NCI-H460
[29] = test system: DU-145
[30] = test system: SK-MEL-28
[31] = test system: U-251
[32] = test system: NCI-H522
[33] = test system: SK-OV-3
[34] = test system: SR
[35] = test system: IGROV-1
[36] = test system: LOX IMVI
[37] = test system: HCC 2998
[38] = test system: 786-0
[39] = test system: M14
[40] = test system: SN12C
[41] = test system: CAKI-1
[42] = test system: HCT-15
[43] = test system: EKVX
[44] = test system: OVCAR-4
[45] = test system: SK-MEL-5
[46] = test system: UACC-257
[47] = test system: K562
[48] = test system: SNB-75
[49] = test system: SNB-19
[50] = test system: SF-268
[51] = test system: T47D
[52] = test system: BT-549
[53] = test system: SW-620
[54] = test system: RPMI-8226
[55] = test system: UO-31
[56] = test system: Malme-3M
[57] = test system: HOP-62
[58] = test system: CCRF-CEM

Measured: GI50

CC12CCC(Br)C(C)(C)C1CC=C1C(=O)OCC1O2 (stereo not given)
inactive: [1] 11.8 µM | [2] 1.84 µM | [3] 20.4 µM | [4] 10.1 µM | [5] 15.8 µM | [6] 12 µM | [7] 23.6 µM | [8] 16.9 µM | [9] 11.1 µM | [10] 8.59 µM | [11] 18.7 µM | [12] 12 µM | [13] 60.8 µM | [14] 9.89 µM | [15] 13.6 µM | [16] 19 µM | [17] 14 µM | [18] 7.05 µM | [19] 18.2 µM | [20] 12.9 µM | [21] 6.07 µM | [22] 11.6 µM | [23] 11.9 µM | [24] 14.2 µM | [25] 12.5 µM | [26] 14.4 µM | [27] 10.9 µM | [28] 14.6 µM | [29] 12 µM | [30] 14.8 µM | [31] 9.77 µM | [32] 3.52 µM | [33] 9.06 µM | [34] 5.15 µM | [35] 3.72 µM | [36] 9.57 µM | [37] 12.1 µM | [38] 19.4 µM | [39] 20.5 µM | [40] 18.5 µM | [41] 11.6 µM | [43] 16.5 µM | [44] 16 µM | [45] 15.1 µM | [46] 12.4 µM | [47] 12.7 µM | [48] 15.5 µM | [49] 18.2 µM | [50] 14.1 µM | [51] 15.4 µM | [52] 14.9 µM | [53] 16.7 µM | [54] 2.73 µM | [55] 8.13 µM
12.1 µM: [42]

O=C1OC2(c3ccccc31)c1cc(I)c(O)c(I)c1Oc1c2cc(I)c(O)c1I [ERYTHROSINE]
31.3 µM: [42]
inactive: [1] 70 µM | [3] > 100 µM | [4] 37.4 µM | [5] > 100 µM | [6] > 100 µM | [7] > 100 µM | [8] 5.46 µM | [9] 5.79 µM | [10] 75.9 µM | [11] > 100 µM | [13] > 100 µM | [14] > 100 µM | [15] > 100 µM | [16] > 100 µM | [17] > 100 µM | [18] > 100 µM | [56] 64.1 µM | [19] > 100 µM | [20] 72.4 µM | [21] > 100 µM | [22] > 100 µM | [23] > 100 µM | [24] 10.4 µM | [25] 96.8 µM | [26] > 100 µM | [27] 49.1 µM | [28] > 100 µM | [29] > 100 µM | [30] > 100 µM | [31] 92.3 µM | [32] 19.3 µM | [33] > 100 µM | [34] > 100 µM | [35] > 100 µM | [57] > 100 µM | [36] 76.6 µM | [38] > 100 µM | [39] 68.2 µM | [58] > 100 µM | [40] > 100 µM | [41] 14.6 µM | [43] > 100 µM | [44] > 100 µM | [45] > 100 µM | [46] > 100 µM | [47] > 100 µM | [48] > 100 µM | [49] > 100 µM | [50] > 100 µM | [51] > 100 µM | [52] 45.8 µM | [53] > 100 µM | [54] > 100 µM | [55] > 100 µM
